pIC50: −log10 of the molar value. Calls of active or inactive are those of the source. No cut-off for these calls is given here.

Experiment [1] deals with FaDu. Briefly: Cytotoxic activity against human FADU bulk cells incubated for 72 hrs by Cell-titer-Glo luminescence assay. The format is functional, cell-based.
Experiment [2] deals with A549. Briefly: Cytotoxic activity against human A549 bulk cells incubated for 72 hrs by Cell-titer-Glo luminescence assay. The format is functional, cell-based. The conditions noted are these: A549, 72 h.
Experiment [3] relates to ACHN. Briefly: Cytotoxic activity against human ACHN bulk cells incubated for 72 hrs by Cell-titer-Glo luminescence assay. Format: functional, cell-based.
Experiment [4] deals with FaDu. Briefly: Cytotoxic activity against human FADU cancer stem cells incubated for 72 hrs by Cell-titer-Glo luminescence assay. Format: functional, cell-based.
Experiment [5] deals with A549. Briefly: Cytotoxic activity against human A549 cancer stem cells incubated for 72 hrs by Cell-titer-Glo luminescence assay. The format is functional, cell-based. The conditions noted are these: A549, 72 h.
Experiment [6] deals with ACHN. Briefly: Cytotoxic activity against human ACHN cancer stem cells incubated for 72 hrs by Cell-titer-Glo luminescence assay. The format is functional, cell-based.
In experiment [7] the target is Serine/threonine-protein kinase RIO2 (Homo sapiens) (UniProt Q9BVS4). Briefly: Inhibition of N-terminal GST-fused full length human recombinant RIOK2 expressed in baculovirus Sf21 cells assessed as reduction in kinase auto-phosphorylation at 1 uM in presence of ATP incubated for 1 hr by ELISA method. In general terms: ELISA stands for enzyme-linked immunosorbent assay.

For experiment [8] the target is unchanged. Briefly: Inhibition of N-terminal GST-fused full length human recombinant RIOK2 expressed in baculovirus Sf21 cells assessed as reduction in kinase auto-phosphorylation at 10 uM in presence of ATP incubated for 1 hr by ELISA method.
For experiment [9], the target named is Mitogen-activated protein kinase; ERK1/ERK2 (Homo sapiens) (UniProt P27361+P28482). Briefly: Inhibition of ERK phosphorylation in cells (unknown origin) incubated for 6 hrs by Western blot based cell based method. On the technique in general: Immunoblotting shows a protein as a band on a membrane.
Experiment [10] addresses T1, Ribosomal protein S6 kinase (Homo sapiens) (UniProt P51812+Q9UBS0+O75676+Q15349+O75582+P23443+Q9UK32+Q15418). Briefly: Inhibition of RPS6 kinase phosphorylation in cells (unknown origin) incubated for 6 hrs by Western blot based cell based method.
The target in experiment [11] is AMP-activated protein kinase, AMPK (Homo sapiens) (UniProt P54646+O43741+P54619+Q9UGJ0+Q9Y478+Q13131+Q9UGI9). Briefly: Inhibition of AMPK in human HeLa cells assessed as kinase phosphorylation level at 5 uM incubated for 6 hrs by SDS-PAGE based chemiluminescence assay. The format is cell-based. The arrangement: scale not given: the % may be the effect or the level left.

Experiment [12] has as its target T1, Ribosomal protein S6 kinase (Homo sapiens). Briefly: Inhibition of RPS6 kinase in human HeLa cells assessed as p-RPS6 Ser235/236 phosphorylation level at 5 uM incubated for 6 hrs by SDS-PAGE based chemiluminescence assay. The format is cell-based. The arrangement: scale not given: the % may be the effect or the level left.
The target is the same in experiment [13]. Briefly: Inhibition of RPS6 kinase in human HeLa cells assessed as p-RPS6 Ser240/244 phosphorylation level at 5 uM incubated for 6 hrs by SDS-PAGE based chemiluminescence assay. The arrangement: scale not given: the % may be the effect or the level left. The format is cell-based.

Chain of Mitogen-activated protein kinase; ERK1/ERK2 (Homo sapiens) (P27361 whole entry, looked up): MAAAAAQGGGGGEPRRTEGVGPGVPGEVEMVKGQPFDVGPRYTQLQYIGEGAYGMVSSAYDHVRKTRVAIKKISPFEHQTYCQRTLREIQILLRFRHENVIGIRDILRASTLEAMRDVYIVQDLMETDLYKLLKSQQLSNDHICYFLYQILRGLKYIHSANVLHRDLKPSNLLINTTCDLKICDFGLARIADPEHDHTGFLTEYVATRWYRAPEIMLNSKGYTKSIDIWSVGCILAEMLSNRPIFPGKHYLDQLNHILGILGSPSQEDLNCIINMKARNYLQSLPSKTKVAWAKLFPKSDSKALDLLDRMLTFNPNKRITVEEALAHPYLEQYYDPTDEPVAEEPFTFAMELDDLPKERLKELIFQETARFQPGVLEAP
Chain of Mitogen-activated protein kinase; ERK1/ERK2 (Homo sapiens) (P28482 whole entry, looked up): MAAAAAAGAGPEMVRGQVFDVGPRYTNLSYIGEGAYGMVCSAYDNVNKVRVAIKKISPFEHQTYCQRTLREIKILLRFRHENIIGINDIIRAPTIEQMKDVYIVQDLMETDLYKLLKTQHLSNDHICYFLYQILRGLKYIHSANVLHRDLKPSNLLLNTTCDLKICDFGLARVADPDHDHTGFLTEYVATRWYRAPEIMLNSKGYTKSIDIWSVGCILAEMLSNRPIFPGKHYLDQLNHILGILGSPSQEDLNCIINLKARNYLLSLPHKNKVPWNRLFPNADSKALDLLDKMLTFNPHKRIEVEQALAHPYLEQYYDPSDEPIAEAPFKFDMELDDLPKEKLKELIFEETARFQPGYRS
Chain of Serine/threonine-protein kinase RIO2 (Homo sapiens) (Q9BVS4 whole entry, looked up, the tested form may be a part): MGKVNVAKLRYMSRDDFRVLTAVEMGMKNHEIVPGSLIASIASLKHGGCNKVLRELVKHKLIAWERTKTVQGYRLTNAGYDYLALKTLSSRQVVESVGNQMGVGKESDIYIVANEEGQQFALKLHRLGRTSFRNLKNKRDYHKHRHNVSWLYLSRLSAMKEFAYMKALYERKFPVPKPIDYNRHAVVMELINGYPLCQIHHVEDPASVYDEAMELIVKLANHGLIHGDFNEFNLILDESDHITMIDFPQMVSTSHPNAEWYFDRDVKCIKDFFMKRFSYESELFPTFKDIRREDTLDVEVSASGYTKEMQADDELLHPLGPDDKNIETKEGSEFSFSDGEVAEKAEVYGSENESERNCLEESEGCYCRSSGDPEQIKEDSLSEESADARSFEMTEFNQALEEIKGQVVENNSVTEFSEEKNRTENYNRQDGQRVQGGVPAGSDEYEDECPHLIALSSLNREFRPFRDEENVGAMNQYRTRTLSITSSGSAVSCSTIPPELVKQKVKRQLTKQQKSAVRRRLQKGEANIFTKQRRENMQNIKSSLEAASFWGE

For `CCN(CC)CCNC(=O)c1c(C)[nH]c(/C=C2\C(=O)Nc3ccc(-c4cnn(-c5ccccn5)c4)cc32)c1C`, the pIC50 in the experiment on FaDu [1] is 6.29; in the experiment on A549 [2] it was 5.76; in the experiment on ACHN [3], 5.91; in the experiment with FaDu [4] it was 7.30; in the experiment on A549 [5], 5.60; in the experiment with ACHN [6] it was 6.89. Moreover, the inhibition amounted to 36% in experiment [7] and 86% in experiment [8].

Turning to `CCN(CC)CCNC(=O)c1c(C)[nH]c(/C=C2\C(=O)Nc3ccc(-c4cnn(-c5ccccc5)c4C)cc32)c1C`, the pIC50 in the experiment on FaDu [1] was 5.55; in the experiment on A549 [2] it was 4.53; in the experiment on ACHN [3], 5.45; with FaDu [4], 5.88; in the experiment on A549 [5] it was 5.31. Also, the values for the inhibition in experiment [7] and in experiment [8] were 55% and 76%, respectively.

Turning to `CCOC(=O)CCc1ccc(-c2nc(-c3ccc4c(c3)/C(=C/c3[nH]c(C)c(C(=O)NCCN(CC)CC)c3C)C(=O)N4)cs2)cc1`, the inhibition entry in experiment [9] is “Active”. The compound further had a pIC50 in the experiment with FaDu [4] of 5.60.

`Cc1[nH]c(/C=C2\C(=O)Nc3ccc(-c4csc(-c5ccccc5)n4)cc32)c(C)c1C(=O)NCCO`: the inhibition entry in experiment [10] was “Active”.

Turning to `Cc1[nH]c(/C=C2\C(=O)Nc3ccc(-c4cnn(-c5ccccc5)c4)cc32)c(C)c1C(=O)NC[C@@H]1CCCN1`, the figures for the inhibition in experiment [7] and in [8] were 13% and 94%, respectively.

`CCN(CC)CCNC(=O)c1c(C)[nH]c(/C=C2\C(=O)Nc3ccc(-c4cnn(-c5nccs5)c4)cc32)c1C`: the inhibition was determined as 18% in [7] and 111% in [8].

`CCN(CC)CCNC(=O)c1c(C)[nH]c(/C=C2\C(=O)Nc3ccc(-c4ncc(-c5ccccc5)o4)cc32)c1C`: the pIC50 with FaDu [1] is 5.13; with FaDu [4], 4.56; in the experiment with A549 [5], 6.46. The inhibition in experiment [7] came to 32%; in experiment [8], 56%.

Take `Cc1cc(C)c(/C=C2\C(=O)Nc3ccc(-c4ccc(C=O)cc4)cc32)[nH]1`: the inhibition result in experiment [9] is “Active”. In addition, the results for the pIC50 in the experiment with FaDu [1] and in the experiment on A549 [2] were 4.57 and 4.53, respectively.

For `CCN(CC)CCNC(=O)c1c(C)[nH]c(/C=C2\C(=O)Nc3ccc(-c4cnn(-c5ccncn5)c4)cc32)c1C`, the inhibition in experiment [7] came out at 40%; in experiment [8], 109%.

In the case of `Cc1[nH]c(/C=C2\C(=O)Nc3ccc(-c4cnn(-c5ccccc5)c4)cc32)c(C)c1C(=O)NCC1(N)CCCC1`, the values for the inhibition in [7] and in [8] were 7% and 65%, respectively.

`CCN(CC)CCNC(=O)c1c(C)[nH]c(/C=C2\C(=O)Nc3ccc(-c4cnn(-c5cscn5)c4)cc32)c1C`: the results for the inhibition in experiment [7] and in experiment [8] were 41% and 99%, respectively.

On to `CCN(CC)CCNC(=O)c1c(C)[nH]c(/C=C2\C(=O)Nc3ccc(-c4ccnn4-c4cccc(OC)c4)cc32)c1C`, for which the figures for the inhibition in experiment [7] and in experiment [8] were 51% and 98%, respectively.

With `CCN(CC)CCNC(=O)c1c(C)[nH]c(/C=C2\C(=O)Nc3ccc(-c4cnn(-c5cccnc5)c4)cc32)c1C`, the inhibition in [7] amounted to 42%; in experiment [8] it was 82%.

Regarding `CCN(CC)CCNC(=O)c1c(C)[nH]c(/C=C2\C(=O)Nc3ccc(-c4cnn(-c5cnccn5)c4)cc32)c1C`, the inhibition in experiment [7] is 47%; in experiment [8], 95%.

On to `CCN(CC)CCNC(=O)c1c(C)[nH]c(/C=C2\C(=O)Nc3ccc(-c4cnn(-c5ccccc5)c4)cc32)c1C`, for which the pIC50 with FaDu [1] is 5.20; in the experiment with A549 [2], 5.27; in the experiment on ACHN [3] it was 5.64; in the experiment with FaDu [4], 6.22; with A549 [5], 5.32. In addition, the figures for the inhibition in experiment [7] and in experiment [8] were 45% and 94%, respectively.

For `CCNC(=O)c1c(C)[nH]c(/C=C2\C(=O)Nc3ccc(-c4csc(-c5ccccc5)n4)cc32)c1C`, the inhibition result in [9] and in experiment [10] was “Active” throughout.

Take `CCN(CC)CCNC(=O)c1c(C)[nH]c(/C=C2\C(=O)Nc3ccc(-c4ccnn4-c4ccc(C(F)(F)F)cc4)cc32)c1C`: the inhibition in experiment [7] is 9%; in [8] it was 68%.

For the compound `Cc1[nH]c(/C=C2\C(=O)Nc3ccc(-c4cnn(-c5ccccc5)c4)cc32)c(C)c1C(=O)N[C@H]1[C@@H]2CNC[C@@H]21`, the results for the inhibition in experiment [7] and in experiment [8] were 22% and 134%, respectively.

As to `Cc1[nH]c(/C=C2\C(=O)Nc3ccc(-c4cnn(-c5ccccn5)c4)cc32)c(C)c1C(=O)NCCN1CCCC1`, the pIC50 in the experiment with FaDu [1] is 5.60; in the experiment on A549 [2], 5.60; with ACHN [3] it was 5.79; with FaDu [4] it was 5.78; in the experiment with A549 [5] it was 4.93; with ACHN [6] it was 6.66. The results for the inhibition in experiment [7] and in experiment [8] were 53% and 91%, respectively. For the same compound, the Activity in experiment [11] is 52%; in experiment [12], 82%; in [13], 92%.

As to `CCN(CC)CCN(C)C(=O)c1c(C)[nH]c(/C=C2\C(=O)Nc3ccc(-c4cnn(-c5ccccc5)c4)cc32)c1C`, the results for the inhibition in experiment [7] and in experiment [8] were 3% and 113%, respectively.

As to `CCN(CC)CCNC(=O)c1c(C)[nH]c(/C=C2\C(=O)Nc3ccc(-c4ccnn4-c4ccccc4)cc32)c1C`, the pIC50 with FaDu [1] was 5.52; in the experiment with A549 [2], 5.53; with ACHN [3], 5.18; in the experiment on FaDu [4], 5.46; with A549 [5], 5.26; in the experiment with ACHN [6], 5.93. Also, the inhibition in [7] is 55%; in experiment [8], 100%.

Regarding `CCN(CC)CCNC(=O)c1c(C)[nH]c(/C=C2\C(=O)Nc3ccc(-c4cnn(-c5ccc(S(N)(=O)=O)cc5)c4)cc32)c1C`, the inhibition in [7] was 26%; in experiment [8] it was 71%.

For the compound `CCN(CC)CCNC(=O)c1c(C)[nH]c(/C=C2\C(=O)Nc3ccc(-c4cnn(C5CCOCC5)c4)cc32)c1C`, the pIC50 in the experiment on FaDu [1] is 5.37; in the experiment on A549 [2], 4.80; with ACHN [3], 4.98; in the experiment on FaDu [4] it was 5.59. The inhibition in experiment [7] was determined as 32%; in [8] it was 68%.

In the case of `CCN(CC)CCCNC(=O)c1c(C)[nH]c(/C=C2\C(=O)Nc3ccc(-c4cnn(-c5ccccc5)c4)cc32)c1C`, the inhibition in [7] worked out at 20%; in [8], 96%.

In general, pIC50 refers to −log10 of the IC50, conventionally taken in molar units. Broadly, the inhibition is the relative decrease from the control value, in per cent.

For the origin of these results see ChEMBL document CHEMBL3727348, “3-(aryl or heteroaryl) methyleneindolin-2-one derivatives as inhibitors of cancer stem cell pathway kinases for the treatment of cancer” (2014).
